Here are results for one substance from US20060229233A1, “Compositions and methods for treating neurological disorders” (ID Biomedical Corporation, priority 2004, published 2006).

One data set has as its system Aβ fibrils. The experiment in a line: Thioflavin-S quantification of Aβ fibrils in hippocampus, Tg2576 APP transgenic mice. It is filed as in vivo. The source says:
(§1) In order to determine whether the effect was unique to MOG-induced EAE, EAE was induced with proteolipid protein (PLP) peptide (amino acids 139-151) in CFA. A 76% reduction of staining for Aβ fibrils was found and a 70% reduction in Aβ levels in animals with PLP induced EAE (p<0.02) (See Table 2, FIG. 3A). In order to induce EAE with PLP, Tg2576 mice as described by Hsiao, K. et al., Science 274 (5284):99-102 (1996) were utilized, which are on a B6/SJL background. Similar results were found with Tg2576 mice and J20 immunized mice described by Mucke et al., Ann NY Acad Sci (777) 82-88 (1996), to induce MOG-EAE (See Table 1). […]
(§2) Amyloid quantification. To quantify amyloid burden, the right hemisphere was extracted in 5.0 M guanidinium-chloride (pH 8) for 3 hours at room temperature. […] Brains were frozen in the presence of OCT paraformaldehyde, cut to 14-μm longitudinal sections used for immunohistological staining and amyloid fibril quantification. Well-defined hippocampal regions (Bregma −1.34), were selected for quantification of the amount of amyloid fibril in plaques using thioflavin-S staining. Images (magnification ×20) from these sections were collected from a 3CCD color video camera and analyzed with appropriate software (NIH; Imaging Research). The amount of amyloid fibril was expressed as a percentage per mm^2 hippocampal region as measured by the software.

Data set [1] concerns Tg2576 APP transgenic mice. The experiment in a line: EAE clinical score in PLP-immunized Tg2576 APP transgenic mice. It is filed as in vivo. The following applies: PLP immunization in CFA. From the text: In order to determine whether the effect was unique to MOG-induced EAE, EAE was induced with proteolipid protein (PLP) peptide (amino acids 139-151) in CFA. A 76% reduction of staining for Aβ fibrils was found and a 70% reduction in Aβ levels in animals with PLP induced EAE (p<0.02) (See Table 2, FIG. 3A). In order to induce EAE with PLP, Tg2576 mice as described by Hsiao, K. et al., Science 274 (5284):99-102 (1996) were utilized, which are on a B6/SJL background. Similar results were found with Tg2576 mice and J20 immunized mice described by Mucke et al., Ann NY Acad Sci (777) 82-88 (1996), to induce MOG-EAE (See Table 1). […] Of note, there was no difference in the total AS (amyloid) load in J20 mice greater than 13 months in age when compared to Tg2576 mice greater than 16 months of age.
Induction and clinical evaluation of EAE in APP+ mice. (B6D2)F1 or (B6XSJL)F1 APP+ (WT or B-cell deficient μMT) and non-tg littermates were immunized in the hind footpads with 100 μg MOG(35-55), PLP 139-151 or 100 μg β-amyloid peptide (1-40) in CFA. […] Animals were monitored for symptoms of EAE beginning 7 days after immunization and scored as follows: 0, no disease; 1, tail paralysis; 2, hind limb weakness; 3, hind limb paralysis; 4, hind limb plus forelimb paralysis; and 5, moribund.

A further data set has as its system activated microglia. The experiment in a line: Microglia activation (CD11b staining) in PLP-immunized animals. To be noted: PLP immunization; p<0.001. It is filed as in vivo, mice.
Another data set deals with Aβ40 and Aβ42. In words: Total brain Aβ by ELISA, Tg2576 APP transgenic mice. It is filed as in vivo.
Description: as §1, §2
In general terms: ELISA stands for enzyme-linked immunosorbent assay.

In the next data set the test system is Aβ. The experiment in a line: Anti-Aβ antibody level (IgG, OD 450) in Tg2576 APP transgenic mice. It is filed as in vivo. The procedure:
Antibody levels were measured against Aβ in animals immunized with MOG or PLP to determine if there was cross reactivity with Aβ and Aβ antibody titers as compared to those from animals immunized with Aβ. […] To definitively establish that antibodies were not playing a role, 16-month-old J20 mice bred to μMT B-cell deficient mice were immunized with MOG 35-55 in CFA followed by administration of Pertussis toxin.

Setting [2] is: PLP immunization in CFA, Tg2576 APP transgenic mice.

Marks after values point to notes of the source that are not given here.

In the case of “proteolipid protein (PLP) peptide (amino acids 139-151) (CHCLGKWLGHPDK; UniProt P60202 139-151, looked up, fragment)”, in the data set on Aβ fibrils (setting [2]), the “% Area of thioflavin positive Aβ plaques (hippocampus)” value is 0.68 ± 0.2 ^b %. Further, in the data set on Aβ fibrils (PLP induced EAE, Tg2576 mice), the “reduction of staining for Aβ fibrils” value worked out at 76%. The substance further registered an EAE score in data set [1] of 1.7 ± 0.7. The “microglia activation” value in the data set with activated microglia is recorded as “increased levels of microglia activation”. Besides, in the data set with Aβ40 and Aβ42 (setting [2]), the “Total brain Aβ” value is recorded as 47.7 ± 18.4 ^a ng/ml. The “reduction in Aβ levels” value with Aβ40 and Aβ42 (PLP induced EAE, Tg2576 mice) stood at 70%. The “anti-Aβ antibodies” value in the data set with Aβ (PLP immunization) is given as “not detected”. In addition, the “Anti-Aβ Antibody” value with Aβ (level of OD 450 at titer of 1:500 IgG, Tg2576 APP transgenic mice) is recorded as 0 OD 450.
